Results published in US20160219881A1, “HERBICIDALLY ACTIVE 2-HALOGEN-4-ALKYNYL-PHENYL-PYRAZOLIDINE-DIONE OR PYRROLIDINE-DIONE DERIVATIVES” (SYNGENTA LIMITED, priority 2013, published 2016).

Key:
[1] = system: Alopecurus myosuroides (ALOMY); test: Test 1A glasshouse assay, post-emergence herbicidal activity; format: in vivo; conditions: 312 h, 13 days after application, read-out: Post-Emergence Herbicidal Activity (% Phytotoxicity) ALOMY
Experimental: (§1) Seeds of a variety of test species are sown in standard soil (usually sandy soil) in pots. After cultivation for one day (pre-emergence) or after 8 days cultivation (post-emergence) under controlled conditions in a glasshouse (at 24/16° C., day/night; 14 hours light; 65% humidity), the plants are sprayed with an aqueous spray solution derived from the formulation of the technical active ingredient (compound) in acetone/water (50:50) solution containing 0.5% Tween 20 (polyoxyethylene sorbitan monolaurate, CAS RN 9005-64-5). The test plants are then grown under controlled conditions in a glasshouse (at 24/16° C., day/night; 14 hours light; 65% humidity) and watered twice daily. 13 days after application of the test compounds, for pre- and post-emergence, the test is evaluated visually for percentage phytotoxicity to each plant (where 100%=total damage to plant; 0%=no damage to plant).
(§2) Alopecurus myosuroides (ALOMY), Setaria faberi (SETFA), Echinochloa crus-galli (ECHCG), Amaranthus retroflexus (AMARE), and Abutilon theophasti Medik. (ABUTH, common English name “velvetleaf”). Of these, Alopecurus myosuroides (ALOMY), Setaria faberi (SETFA), and Echinochloa crus-galli (ECHCG) are grassy monocotyledonous weeds. […]

[2] = system: Echinochloa crus-galli (ECHCG); test: as above; format: in vivo; conditions: 312 h, 13 days after application, read-out: Post-Emergence Herbicidal Activity (% Phytotoxicity) ECHCG
Experimental: as §1, §2

[3] = system: Abutilon theophasti Medik. (ABUTH); test: as above; format: in vivo; conditions: 312 h, 13 days after application, read-out: Post-Emergence Herbicidal Activity (% Phytotoxicity) ABUTH
Experimental: as §1
(§3) Alopecurus myosuroides (ALOMY), Setaria faberi (SETFA), Echinochloa crus-galli (ECHCG), Amaranthus retroflexus (AMARE), and Abutilon theophasti Medik. (ABUTH, common English name “velvetleaf”). Of these, Alopecurus myosuroides (ALOMY), Setaria faberi (SETFA), and Echinochloa crus-galli (ECHCG) are grassy monocotyledonous weeds.

Setaria faberi (SETFA) [4] = test: as above; format: in vivo; conditions: 312 h, 13 days after application, read-out: Post-Emergence Herbicidal Activity (% Phytotoxicity) SET FA
Experimental: as §1, §3

[5] = system: Amaranthus retroflexus (AMARE); test: as above; format: in vivo; conditions: 312 h, 13 days after application, read-out: Post-Emergence Herbicidal Activity (% Phytotoxicity) AMARE
Experimental: as §1, §3

[6] = system: Alopecurus myosuroides (ALOMY); test: Test 1A glasshouse assay, pre-emergence herbicidal activity; format: in vivo; conditions: 312 h, 13 days after application, read-out: Pre-Emergence Herbicidal Activity (% Phytotoxicity) ALOMY
Experimental: as §1, §3
(§4) Lolium perenne (LOLPE), Triticum aestivum (TRZAW, winter wheat), Alopecurus myosuroides (ALOMY), Echinochloa crus-galli (ECHCG), and Avena fatua (AVEFA). All these are grassy monocotyledonous weeds and/or (for wheat) grassy crops.

[7] = system: Echinochloa crus-galli (ECHCG); test: as above; format: in vivo; conditions: 312 h, 13 days after application, read-out: Pre-Emergence Herbicidal Activity (% Phytotoxicity) ECHCG
Experimental: as §1, §2

Setaria faberi (SETFA) [8] = test: as above; format: in vivo; conditions: 312 h, 13 days after application, read-out: Pre-Emergence Herbicidal Activity (% Phytotoxicity) SET FA
Experimental: as §1, §3

[9] = system: Amaranthus retroflexus (AMARE); test: as above; format: in vivo; conditions: 312 h, 13 days after application, read-out: Pre-Emergence Herbicidal Activity (% Phytotoxicity) AMARE
Experimental: as §1, §3

[10] = system: Abutilon theophasti Medik. (ABUTH); test: as above; format: in vivo; conditions: 312 h, 13 days after application, read-out: Pre-Emergence Herbicidal Activity (% Phytotoxicity) ABUTH
Experimental: as §1, §3

Lolium perenne (LOLPE) [11] = test: Test 1A glasshouse assay, post-emergence herbicidal activity; format: in vivo; conditions: 312 h, 250 g/ha, 13 days after application, read-out: Post-Emergence Herbicidal Activity (% Phytotoxicity) LOLPE
Experimental: as §1
(§5) Lolium perenne (LOLPE), Triticum aestivum (TRZAW, winter wheat, variety ‘Hereward’), Alopecurus myosuroides (ALOMY), Echinochloa crus-galli (ECHCG), and Avena fatua (AVEFA). All these are grassy monocotyledonous weeds and/or (for wheat) grassy crops.

Avena fatua (AVEFA) [12] = test: as above; format: in vivo; conditions: 312 h, 250 g/ha, 13 days after application, read-out: Post-Emergence Herbicidal Activity (% Phytotoxicity) AVEFA
Experimental: as §1, §5

[13] = system: Triticum aestivum (TRZAW, winter wheat, variety ‘Hereward’); test: as above; format: in vivo; conditions: 312 h, 250 g/ha, 13 days after application, read-out: Post-Emergence Herbicidal Activity (% Phytotoxicity) TRZAW
Experimental: as §1, §5

Lolium perenne (LOLPE) [14] = test: Test 1A glasshouse assay, pre-emergence herbicidal activity; format: in vivo; conditions: 312 h, 250 g/ha, 13 days after application, read-out: Pre-Emergence Herbicidal Activity (% Phytotoxicity) LOLPE
Experimental: as §1, §4

Avena fatua (AVEFA) [15] = test: as above; format: in vivo; conditions: 312 h, 250 g/ha, 13 days after application, read-out: Pre-Emergence Herbicidal Activity (% Phytotoxicity) AVEFA
Experimental: as §1, §4

[16] = system: Triticum aestivum (TRZAW, winter wheat); test: as above; format: in vivo; conditions: 312 h, 250 g/ha, 13 days after application, read-out: Pre-Emergence Herbicidal Activity (% Phytotoxicity) TRZAW
Experimental: as §1, §4

volunteer corn = conditions: gibberellic acid mixed with clethodim; cited from earlier work
[17] = system: Johnsongrass (Sorghum halepense); conditions: gibberellic acid mixed with clethodim; cited from earlier work

CC#Cc1ccc(C2C(=O)N(C)N(C)C2=O)c(C)c1 [Compound A2]
inhibition at 250 g/ha [1]: 70% | inhibition at 250 g/ha [2]: 90% | inhibition at 250 g/ha [3]: 10% | inhibition at 250 g/ha (Setaria faberi (SETFA) [4]): 80% | inhibition at 250 g/ha [5]: 100% | inhibition at 250 g/ha [6]: 80% | inhibition at 250 g/ha [7]: 70% | inhibition at 250 g/ha (Setaria faberi (SETFA) [8]): 90% | inhibition at 250 g/ha [9]: 10%

CC#Cc1cc(OC)c(C2C(=O)N(C)N(C)C2=O)c(OC)c1 [Compound A5]
inhibition at 30 g/ha [1]: 70% | inhibition at 250 g/ha [1]: 90% | inhibition at 30 g/ha [2]: 90% | inhibition at 250 g/ha [2]: 100% | inhibition at 30 g/ha [3]: 0% | inhibition at 250 g/ha [3]: 0% | inhibition at 30 g/ha (Setaria faberi (SETFA) [4]): 80% | inhibition at 250 g/ha (Setaria faberi (SETFA) [4]): 90% | inhibition at 30 g/ha [5]: 0% | inhibition at 250 g/ha [5]: 0% | inhibition at 250 g/ha [6]: 90% | inhibition at 250 g/ha [7]: 90% | inhibition at 250 g/ha [10]: 0% | inhibition at 250 g/ha (Setaria faberi (SETFA) [8]): 100% | inhibition at 250 g/ha [9]: 10%

CC#Cc1cc(C)c(C2C(=O)N(CC)N(CC)C2=O)c(C)c1 [Compound A6]
inhibition at 30 g/ha [1]: 20% | inhibition at 250 g/ha [1]: 80% | inhibition at 30 g/ha [2]: 40% | inhibition at 250 g/ha [2]: 80% | inhibition at 30 g/ha [3]: 30% | inhibition at 250 g/ha [3]: 30% | inhibition at 30 g/ha (Setaria faberi (SETFA) [4]): 70% | inhibition at 250 g/ha (Setaria faberi (SETFA) [4]): 80% | inhibition at 30 g/ha [5]: 0% | inhibition at 250 g/ha [5]: 30% | inhibition at 250 g/ha [6]: 50% | inhibition at 250 g/ha [7]: 80% | inhibition at 250 g/ha [10]: 30% | inhibition at 250 g/ha (Setaria faberi (SETFA) [8]): 70% | inhibition at 250 g/ha [9]: 70%

CC#Cc1cc(C)c(C2C(=O)N3CCCCN3C2=O)c(C)c1 [Compound A18]
inhibition at 30 g/ha [1]: 50% | inhibition at 250 g/ha [1]: 80% | inhibition at 30 g/ha [2]: 20% | inhibition at 250 g/ha [2]: 100% | inhibition at 30 g/ha [3]: 70% | inhibition at 250 g/ha [3]: 80% | inhibition at 30 g/ha (Setaria faberi (SETFA) [4]): 70% | inhibition at 250 g/ha (Setaria faberi (SETFA) [4]): 90% | inhibition at 30 g/ha [5]: 40% | inhibition at 250 g/ha [5]: 80% | inhibition at 30 g/ha [6]: 60% | inhibition at 250 g/ha [6]: 100% | inhibition at 30 g/ha [7]: 60% | inhibition at 250 g/ha [7]: 90% | inhibition at 30 g/ha [10]: 40% | inhibition at 250 g/ha [10]: 50% | inhibition at 30 g/ha (Setaria faberi (SETFA) [8]): 50% | inhibition at 250 g/ha (Setaria faberi (SETFA) [8]): 90% | inhibition at 30 g/ha [9]: 20% | inhibition at 250 g/ha [9]: 40%

CC#Cc1cc(C)c(C2C(=O)N3CCOCCN3C2=O)c(C)c1 [Compound A28]
inhibition at 30 g/ha [1]: 60% | inhibition at 250 g/ha [1]: 90% | inhibition at 30 g/ha [2]: 80% | inhibition at 250 g/ha [2]: 100% | inhibition at 30 g/ha [3]: 60% | inhibition at 250 g/ha [3]: 70% | inhibition at 30 g/ha (Setaria faberi (SETFA) [4]): 70% | inhibition at 250 g/ha (Setaria faberi (SETFA) [4]): 100% | inhibition at 30 g/ha [5]: 10% | inhibition at 250 g/ha [5]: 30% | inhibition at 30 g/ha [6]: 70% | inhibition at 250 g/ha [6]: 100% | inhibition at 30 g/ha [7]: 80% | inhibition at 250 g/ha [7]: 100% | inhibition at 30 g/ha [10]: 10% | inhibition at 250 g/ha [10]: 10% | inhibition at 30 g/ha (Setaria faberi (SETFA) [8]): 50% | inhibition at 250 g/ha (Setaria faberi (SETFA) [8]): 100% | inhibition at 30 g/ha [9]: 20% | inhibition at 250 g/ha [9]: 30%

CC#Cc1cc(C)c(C2C(=O)CN(Cc3ccccn3)C2=O)c(C)c1 (stereo not drawn) [Compound A48, 3-(2,6-dimethyl-4-prop-1-ynyl-phenyl)-1-(2-pyridylmethyl)pyrrolidine-2,4-dione]
inhibition at 250 g/ha [1]: 90% | inhibition at 250 g/ha [2]: 70% | inhibition at 250 g/ha [6]: 90% | inhibition at 250 g/ha (Lolium perenne (LOLPE) [11]): 70% | inhibition at 250 g/ha (Avena fatua (AVEFA) [12]): 20% | inhibition at 250 g/ha [13]: 30% | inhibition at 250 g/ha (Lolium perenne (LOLPE) [14]): 80% | inhibition at 250 g/ha (Avena fatua (AVEFA) [15]): 40% | inhibition at 250 g/ha [16]: 40% | inhibition at 250 g/ha [7]: 80%

CC#Cc1cc(C)c(-c2c(OC(C)=O)n(C)n(C)c2=O)c(C)c1 [Compound P2]
inhibition at 30 g/ha [1]: 40% | inhibition at 250 g/ha [1]: 90% | inhibition at 30 g/ha [2]: 80% | inhibition at 250 g/ha [2]: 100% | inhibition at 30 g/ha [3]: 10% | inhibition at 250 g/ha [3]: 60% | inhibition at 30 g/ha (Setaria faberi (SETFA) [4]): 40% | inhibition at 250 g/ha (Setaria faberi (SETFA) [4]): 90% | inhibition at 30 g/ha [5]: 0% | inhibition at 250 g/ha [5]: 30% | inhibition at 250 g/ha [6]: 90% | inhibition at 250 g/ha [7]: 100% | inhibition at 250 g/ha [10]: 0% | inhibition at 250 g/ha (Setaria faberi (SETFA) [8]): 90% | inhibition at 250 g/ha [9]: 70%

CC#Cc1cc(C)c(-c2c(OC(=O)C(C)(C)C)n3n(c2=O)CCCCC3)c(C)c1 [Compound P3, [2-(2,6-dimethyl-4-prop-1-ynyl-phenyl)-1-oxo-6,7,8,9-tetrahydro-5H-pyrazolo[1,2-a]diazepin-3-yl]2,2-dimethylpropanoate]
inhibition at 30 g/ha [1]: 40% | inhibition at 250 g/ha [1]: 50% | inhibition at 30 g/ha [2]: 60% | inhibition at 250 g/ha [2]: 100% | inhibition at 30 g/ha [3]: 10% | inhibition at 250 g/ha [3]: 0% | inhibition at 30 g/ha (Setaria faberi (SETFA) [4]): 20% | inhibition at 250 g/ha (Setaria faberi (SETFA) [4]): 70% | inhibition at 30 g/ha [5]: 0% | inhibition at 250 g/ha [6]: 20% | inhibition at 250 g/ha [7]: 20% | inhibition at 250 g/ha [10]: 10% | inhibition at 250 g/ha (Setaria faberi (SETFA) [8]): 70% | inhibition at 250 g/ha [9]: 20%

C=C1C[C@]23C[C@@]1(O)CC[C@H]2[C@@]12C=C[C@H](O)[C@@](C)(C(=O)O1)[C@H]2[C@@H]3C(=O)O [gibberellic acid]
control and/or speed of control of volunteer corn (volunteer corn): increased clethodim's control and/or speed of control | control and/or speed of control of Johnsongrass (Sorghum halepense) [17]: increased clethodim's control and/or speed of control
